Data: patent publication US20150105252A1, “SUBSTITUTED PYRAZOLES AS HERBICIDES” (E I DU PONT DE NEMOURS AND COMPANY, priority 2013, published 2015)

Columns and labels:
Assay in all cases: Test C postemergence
blackgrass = format: in vivo, Alopecurus myosuroides
How it was run: (§1)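 Postemergence values come from plants sprayed at the 1- to 4-leaf stage (2–18 cm) in peat moss–vermiculite medium; preemergence values from seeds treated in a loam–sand blend. Both evaluated visually against controls after 13–15 greenhouse days, scale 0–100.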

ryegrass, Italian = format: in vivo, Lolium multiflorum; details: postemergence
How it was run: as §1

galium = format: in vivo, Galium aparine
How it was run: as §1

corn = format: in vivo, Zea mays
How it was run: as §1

crabgrass, large = format: in vivo, Digitaria sanguinalis
How it was run: as §1

foxtail, giant = format: in vivo, Setaria faberii
How it was run: as §1

johnsongrass = format: in vivo, Sorghum halepense
How it was run: as §1

morningglory = format: in vivo, Ipomoea coccinea
How it was run: as §1

nutsedge, yellow = format: in vivo, Cyperus esculentus
How it was run: as §1

pigweed = format: in vivo, Amaranthus retroflexus; details: postemergence
How it was run: as §1

ragweed = format: in vivo, Ambrosia elation; details: postemergence
How it was run: as §1

soybean = format: in vivo, Glycine max; details: postemergence
How it was run: as §1

oilseed rape = format: in vivo, Brassica napus; details: postemergence
How it was run: as §1

waterhemp = format: in vivo, Amaranthus rudis; details: postemergence
How it was run: as §1

oat, wild = format: in vivo, Avena fatua
How it was run: as §1

kochia = format: in vivo, Kochia scoparia
How it was run: as §1

velvetleaf = format: in vivo, Abutilon theophrasti; details: postemergence
How it was run: as §1

chickweed = format: in vivo, Stellaria media
How it was run: as §1

[1] = Postemergence, 31 g ai/ha, visually evaluated after 13 to 15 days
[2] = postemergence, 62 g ai/ha, scale 0 to 100
[3] = postemergence, 250 g ai/ha, scale 0 to 100 (0 no effect, 100 complete control)
[4] = postemergence, 125 g ai/ha, scale 0 to 100, 0 no effect, 100 complete control
[5] = 250 g ai/ha, scale 0 to 100 (0 no effect, 100 complete control)
[6] = 125 g ai/ha, scale 0 to 100, 0 no effect, 100 complete control

CCc1cc(C(=O)NCC(F)(F)F)nn1Cc1cc(OC(F)F)nn1C [Compound 206]
50: Plant response rating, Oilseed Rape (oilseed rape; [5])
40: Plant response rating (scale of 0 to 100 where 0 is no effect and 100 is complete control), Morningglory (morningglory; [1]) | Morningglory plant response rating (morningglory; [2]) | Plant response rating, Pigweed (pigweed; [5]) | Plant response rating, Pigweed (pigweed; [6])
30: Plant response rating (scale of 0 to 100 where 0 is no effect and 100 is complete control), Galium (galium; [1]) | Galium plant response rating (galium; [2]) | Plant response rating (scale of 0 to 100 where 0 is no effect and 100 is complete control), Kochia (kochia; [1])
0: Plant response rating (scale of 0 to 100 where 0 is no effect and 100 is complete control), Blackgrass (blackgrass; [1]) | Blackgrass plant response rating (blackgrass; [2]) | Plant response rating, Ryegrass, Italian (ryegrass, Italian; [5]) | Plant response rating, Ryegrass, Italian (ryegrass, Italian; [6]) | Plant response rating (scale of 0 to 100 where 0 is no effect and 100 is complete control), Johnsongrass (johnsongrass; [1]) | Johnsongrass plant response rating (johnsongrass; [2]) | Plant response rating (scale of 0 to 100 where 0 is no effect and 100 is complete control), Nutsedge, Yellow (nutsedge, yellow; [1]) | Nutsedge, Yellow plant response rating (nutsedge, yellow; [2]) | Plant response rating, Nutsedge, Yellow (nutsedge, yellow; [3]) | Plant response rating, Nutsedge, Yellow (nutsedge, yellow; [4]) | Plant response rating (scale of 0 to 100 where 0 is no effect and 100 is complete control), Oat, Wild (oat, wild; [1]) | Oat, Wild plant response rating (oat, wild; [2])
45: Plant response rating, Galium (galium; [3]) | Soybean plant response rating (soybean; [6]) | Plant response rating, Waterhemp (waterhemp; [5]) | Plant response rating, Kochia (kochia; [4])
75: Plant response rating, Kochia (kochia; [3]) | Plant response rating, Chickweed (chickweed; [3])
25: Pigweed plant response rating (pigweed; 62 g ai/ha, scale 0 to 100)
65: Plant response rating, Morningglory (morningglory; [3])
10: Plant response rating, Velvetleaf (velvetleaf; [5]) | Velvetleaf plant response rating (velvetleaf; scale 0 to 100)
35: Plant response rating, Ragweed (ragweed; [6]) | Plant response rating, Soybean (soybean; [5]) | Waterhemp plant response rating (waterhemp; scale 0 to 100) | Kochia plant response rating (kochia; [2])
60: Plant response rating, Galium (galium; [4]) | Plant response rating, Morningglory (morningglory; [4])
20: Plant response rating, Ragweed (ragweed; [5])
5: Plant response rating, Blackgrass (blackgrass; [3]) | Plant response rating, Blackgrass (blackgrass; [4]) | Plant response rating (scale of 0 to 100 where 0 is no effect and 100 is complete control), Corn (corn; [1]) | Corn plant response rating (corn; [2]) | Plant response rating, Corn (corn; [3]) | Plant response rating, Corn (corn; [4]) | Plant response rating (scale of 0 to 100 where 0 is no effect and 100 is complete control), Crabgrass, Large (crabgrass, large; [1]) | Crabgrass, Large plant response rating (crabgrass, large; [2]) | Plant response rating, Crabgrass, Large (crabgrass, large; [3]) | Plant response rating, Crabgrass, Large (crabgrass, large; [4]) | Foxtail, Giant plant response rating (foxtail, giant; [2]) | Plant response rating, Foxtail, Giant (foxtail, giant; [3]) | Plant response rating, Foxtail, Giant (foxtail, giant; [4]) | Plant response rating, Johnsongrass (johnsongrass; [3]) | Plant response rating, Johnsongrass (johnsongrass; [4]) | Oilseed Rape plant response rating (oilseed rape; 62 g ai/ha, scale 0 to 100) | Plant response rating, Oilseed Rape (oilseed rape; [6]) | Plant response rating, Oat, Wild (oat, wild; [3]) | Plant response rating, Oat, Wild (oat, wild; [4]) | Plant response rating (scale of 0 to 100 where 0 is no effect and 100 is complete control), Chickweed (chickweed; [1]) | Chickweed plant response rating (chickweed; [2]) | Plant response rating, Chickweed (chickweed; [4])
15: Plant response rating (scale of 0 to 100 where 0 is no effect and 100 is complete control), Foxtail, Giant (foxtail, giant; [1])
